Results reported in patent US6846641B2, “In vitro ischemia model” (AGY Therapeutics, Inc., priority 2002, dated 2005).
Structures can show the parent of a compound that is named as a salt.

Key:
[1] = tested on: CA1 cells; settings: given after the ischemic insult; cited from earlier work
[2] = tested on: CA1 region of mouse hippocampal organotypic tissue cultures; assay: Oxygen and glucose deprivation (OGD) in iCSF, propidium iodide uptake in mouse hippocampal organotypic cultures; format: cell-based; settings: 24 hours of recovery

C[C@]12N[C@H](Cc3ccccc31)c1ccccc12 [MK-801, dizocilpine maleate]
protection of CA1 cells [1]: protected CA1 cells | less damage in the CA1 region compared to matched OGD-control cultures ([2]; 20 μM, pretreatment one hour before 15-minute OGD in iCSF): 90%

N[C@H](CCCP(=O)(O)O)C(=O)O [D-AP5, D-2 amino-5-phosphonopentanoic-acid]
protective effect (damage in CA1 versus OGD-controls) ([2]; 150 μM, one hour before OGD, in iCSF during 15-minute OGD and throughout recovery): 70% | protective effect against 15-minute-OGD in iCSF (PI-intensity in the CA1-area) ([2]; 150 μM, p<0.0001, n=18-24): significant
